Consider one compound from patent publication US20240252454A1, “COMPOSITION COMPRISING AN INHIBITOR OF MITOCHONDRIAL TRANSCRIPTION” (LEAD DISCOVERY CENTER GMBH, priority 2021, published 2024).

SMILES strings stand for the structures.

The nature of series [1]: PK and toxicological studies, plasma and liver concentrations. It counts as in vivo. Conditions: oral combination of the IMT and Venetoclax in 0.5% methyl cellulose in water, NBSGW mice, 4 hours, plasma and liver (FIG. 4). Here is the method:
Combinations s of 2-[(3R)-1-[(2R)-2-[4-(2-chloro-4-fluoro-phenyl)-2-oxo-chromen-7-yl]oxypropanoyl]-3-piperidyl]acetic acid and Venetoclax were administered orally in a formulation of 0.5% methyl cellulose in water, before the respective substance concentrations (y-axis) of Venetoclax (left) or 2-[(3R)-1-[(2R)-2-[4-(2-chloro-4-fluoro-phenyl)-2-oxo-chromen-7-yl]oxypropanoyl]-3-piperidyl]acetic acid (right) after 4 hours and extraction from blood plasma or liver tissue were analysed by LC-MS. Error bars indicate the standard deviation around the mean of the multiple measurements.
For this, a vehicle formulation suitable for the oral administration of the combination of Venetoclax and 2-[(3R)-1-[(2R)-2-[4-(2-chloro-4-fluoro-phenyl)-2-oxo-chromen-7-yl]oxypropanoyl]-3-piperidyl]acetic acid was prepared to examine its pharmacokinetic suitability. Since the formulations based on ethanol, PEG-400 and Phosal that have been published for Venetoclax have not proven to be suitable for generating an administrable solution or suspension of IMT and Venetoclax, a simplified formulation of 0.5% methyl cellulose in water was prepared, which was tested initially in PK and toxicological studies in NBSGW mice (FIG. 4). […] On the other hand, doses that could be safely used were established in this mouse model, with which the subsequent studies could be carried out.

The test system of series [2] is OCI-AML3. The series is described as follows: apoptosis induction, flow cytometry. It counts as cell-based. Conditions: IMT alone, flow cytometry (FIG. 3). The method, then:
(§1) This analysis was carried out using flow cytometry and the established cellular markers for necrosis, apoptosis and living cells.
(§2) These experiments were followed by a broader analysis of the apoptosis induction by the inhibitor combination used in the four AML cell lines MV4-11, MOLM-13, OCI-AML3 and OCI-AML2 (FIG. 3). This analysis was carried out using flow cytometry and the established cellular markers for necrosis, apoptosis and living cells.
A general note: A flow cytometer gives signals particle by particle.

The subject of series [3] is MOLM-13. The series is described as follows: apoptosis induction, flow cytometry. It counts as cell-based. Here is the method:
as §1, §2

Series [4] deals with OCI-AML2. The series is described as follows: apoptosis induction, flow cytometry. It counts as cell-based. Conditions: IMT alone, flow cytometry (FIG. 3). Here is the method: as §1, §2
Series [5] concerns MV4-11. The series is described as follows: apoptosis induction, flow cytometry. It counts as cell-based. The method, then:
as §1, §2

The test system of series [6] is MV4-11. The series is described as follows: CellTiter-GLO (CTG) assay, combinatorial matrix. It counts as cell-based. Conditions: MV4-11, CTG matrix of the IMT with Bcl-2 inhibitor (Venetoclax, Table 10), wide concentration range. Here is the method:
To determine the in vitro cellular viability, cellular ATP concentrations were measured using a luminescence-based homogenous assay format, as described here. […] Optimal cell density for each cell line was determined to guarantee linearity. For viability assays with compounds, cells were then seeded at a density of 200 to 1000 per well in 25 μl in 384-well plates (Greiner Bio-One, Frickenhausen, Germany). After overnight incubation at 37° C./5% CO2, 25 nl or 75 nl compounds were added to each sample well by using BIOMEK FXP Laboratory Automation Workstation (Beckman Coulter, USA). Wells with cells and 0.1% or 0.3% DMSO in culture medium were used as positive controls, wells with cells and 10 μM staurosporine (Selleck Chemicals, Huston, USA) in culture medium were used as negative controls. […] Luminescence was measured by Envision Plate Reader (Perkin Elmer, USA). […]
The general suitability of IMT substances for a combination with standard inhibitors of the Bcl-2 signalling pathway was first determined in in vitro cell culture experiments in a matrix format (Table 10). The changes in the cellular ATP content, as an indicator of the metabolic activity of the cells, were measured using the CellTiter-GLO Assay (CTG), as described in Example 1).

For series [7], the system named is Venetoclax-resistant PDX AML cells. The series is described as follows: in vivo PDX study in a Venetoclax-resistant model. Conditions: NSGS mice. The text has this: A=overview of the study implementation (corresponding to FIG. 5A) in NSGS mice injected with spleenocytes (n=12). B=flow cytometric analysis and % of live hCD45+AML cells in peripheral blood, spleen and bone marrow of the treated groups; C=immunohistological analysis of bone marrow and spleen tissue sections stained with hcd45 (brown); Quantitative analysis of the hCD45+ cells from C with three technical replicates (n=2). E=blood analysis of the survival group; F=Kaplan-Meier survival analysis (n=6 per group). […] The procedure was similar to that previously described for the CDX model, except for the addition of an endpoint control cohort in each treatment group.

[8] abbreviates: IMT alone, flow cytometry (FIG. 3).
Setting [9] is: IMT combined with Venetoclax, compared to Venetoclax alone.

As for `C[C@@H](Oc1ccc2c(-c3ccc(F)cc3Cl)cc(=O)oc2c1)C(=O)N1CCC[C@H](CC(=O)O)C1` [2-[(3R)-1-[(2R)-2-[4-(2-chloro-4-fluoro-phenyl)-2-oxo-chromen-7-yl]oxypropanoyl]-3-piperidyl]acetic acid], the “PK parameters, in particular the plasma and tissue concentrations” value in series [1] was “do not significantly influence one another”. In addition, the induction of apoptosis entry in series [2] is “cannot trigger apoptosis”; in series [3] (setting [8]), “cannot trigger apoptosis”; in series [3] (setting [9]), “increases the induction of apoptosis significantly”; in series [4] it was “cannot trigger apoptosis”; in series [5] (setting [8]), “cannot trigger apoptosis”; in series [5] (setting [9]) it was “increases the induction of apoptosis significantly”. Also, the “combinatorial effect (cellular ATP content)” value in series [6] is “additive or even synergistic effect”. In series [7] (IMT combined with Venetoclax vs individual inhibitors or control, peripheral blood, bone marrow, spleen (FIG. 6)), the “tumour load and circulating hCD45-positive AML cells” value is reported as “significantly lower”. Further, the “overall survival (survival analysis)” value in series [7] (IMT/Bcl-2i combination, treatment lasting 21 days) is “long-lasting, synergistic effect”.
